Publication PMC10144994, “Bioactive Metabolite from Endophytic Aspergillus versicolor SB5 with Anti-Acetylcholinesterase, Anti-Inflammatory and Antioxidant Activities: In Vitro and In Silico Studies” (Microorganisms, 2023)

Biological target: T1, LOX-1 (lipoxygenase from Glycine max, type I-B) (Glycine max, UniProt P08170)
T1 construct: gene LOX1.1
T1 sequence (P08170 1-839): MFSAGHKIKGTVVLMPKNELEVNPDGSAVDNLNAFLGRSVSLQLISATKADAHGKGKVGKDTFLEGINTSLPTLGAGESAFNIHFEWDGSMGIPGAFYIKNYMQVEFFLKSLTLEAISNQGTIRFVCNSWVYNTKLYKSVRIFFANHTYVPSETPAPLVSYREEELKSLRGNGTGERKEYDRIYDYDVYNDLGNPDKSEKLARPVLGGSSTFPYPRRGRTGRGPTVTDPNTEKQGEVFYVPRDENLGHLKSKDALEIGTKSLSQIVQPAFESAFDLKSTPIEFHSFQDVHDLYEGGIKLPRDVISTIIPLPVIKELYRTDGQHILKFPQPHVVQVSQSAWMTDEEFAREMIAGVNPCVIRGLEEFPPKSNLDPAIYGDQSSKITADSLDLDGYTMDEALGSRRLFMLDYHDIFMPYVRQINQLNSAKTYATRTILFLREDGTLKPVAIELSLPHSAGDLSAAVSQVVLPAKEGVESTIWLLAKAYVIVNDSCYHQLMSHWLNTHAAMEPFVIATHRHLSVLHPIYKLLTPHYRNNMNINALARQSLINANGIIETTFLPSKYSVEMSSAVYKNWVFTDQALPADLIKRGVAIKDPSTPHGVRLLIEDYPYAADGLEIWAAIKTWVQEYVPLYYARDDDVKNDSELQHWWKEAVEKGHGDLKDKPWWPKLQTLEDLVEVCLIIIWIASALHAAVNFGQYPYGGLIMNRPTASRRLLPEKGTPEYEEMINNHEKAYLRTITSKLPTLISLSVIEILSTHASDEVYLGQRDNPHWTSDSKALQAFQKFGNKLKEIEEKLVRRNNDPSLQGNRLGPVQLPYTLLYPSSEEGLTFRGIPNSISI
Assay: soybean LOX, linoleic acid substrate, absorbance at […] nm
Type: biochemical

Compound: COc1cc(O)c2c(c1)C(=O)c1cc(C)cc(O)c1C2=O [C1, 1,8-dihydroxy-3-methoxy-6-methylanthracene-9,10-dione]
- IC50: 61.7 µM
